Source: US12441691B2 (Cytokinetics, Inc., priority 2020, dated 2025)

Test system: rabbit skeletal myofibrils (fast skeletal myofibrils)
Assay: Activation of fast skeletal myofibrils (PUMA assay, AC1.4)
Assay type: biochemical
Details: calcium at pCa25, AC1.4 = concentration at which the compound increased the enzymatic activity
Procedure: Preparation of fast skeletal myofibrils: Rabbit skeletal myofibrils were prepared based upon the method of Herrmann et al. (Biochem. 32(28):7255-7263(1993). Myofibrils were prepared from rabbit psoas muscle purchased from Pel-Freez Biologicals (Arkansas) within 2 days of ordering, stored on ice. Minced muscle was homogenized in 10 volumes of ice-cold “standard” buffer (50 mM Tris, pH 7.4, 0.1 M KOAc, 5 mM KCl, 2 mM dithiothreitol (DTT), 0.2 mM phenylmethylsulfonyl fluoride (PMSF), 10 μM leupeptin, 5 μM pepstatin, and 0.5 mM sodium azide) containing 5 mM ethylenediaminetetraacetic acid (EDTA) and 0.5% Triton X-100 using an Omni-Macro homogenizer. Myofibrils were recovered by low speed centrifugation (3000 rpm for 10 minutes) and washed 2 times in the Triton X-100 containing buffer to ensure removal of cellular membrane. Following the Triton washes, myofibrils were washed 3 times in “standard” buffer containing 2 mM magnesium acetate. A final wash in assay buffer (12 mM piperazine-1,4-bis(2-ethanesulfonic acid) (PIPES), pH 6.8, 60 mM KCl, 1 mM DTT) was performed and brought to 10% sucrose for flash freezing in liquid nitrogen and storage at −80° C.
Activation of Fast Skeletal Myofibrils: Fast fiber activators were identified by measuring the enzymatic activity of muscle myofibril preparations using the proprietary PUMA (trademark) (see, e.g., U.S. Pat. Nos. 6,410,254, 6,743,599, 7,202,051, and 7,378,254) assay system. Myofibril preparations consisted of rabbit skeletal muscle (approximately 90% fast fibers) that had been mechanically homogenized and washed with a detergent (Triton X-100) to remove cellular membranes. This preparation retained all of the sarcomeric components in a native conformation and the enzymatic activity was still regulated by calcium. Compounds were tested using a myofibril suspension and a level of calcium sufficient to increase enzymatic activity of the myofibrils to 25% of their maximal rate (termed pCa25). Enzymatic activity was tracked via a pyruvate kinase and lactate dehydrogenase-coupled enzyme system. This assay regenerates myosin-produced ADP into ATP by oxidizing NADH, producing an absorbance change at 340 nm. The buffering system was 12 mM PIPES, 2 mM MgCl2, 1 mM DTT at pH 6.8 (PM12 buffer). […] In Table 9, “Example Compound” refers to the compound labeled with the same number in Table 2.

**Q.** For `CC[C@H](C)[C@H]1C(=O)Nc2cc(F)ccc2CN1C(=O)CCO` [Compound 43, (S)-3-((S)-sec-butyl)-8-fluoro-4-(3-hydroxypropanoyl)-1,3,4,5-tetrahydro-2H-benzo[e][1,4]diazepin-2-one], which AC1.4 is on record?
**A.** The AC1.4 was 0.81 µM.

**Q.** With `CC[C@H](C)[C@H]1C(=O)Nc2c(F)cccc2CN1C(N)=O` [Compound 44, (S)-3-((S)-sec-butyl)-9-fluoro-2-oxo-1,2,3,5-tetrahydro-4H-benzo[e][1,4]diazepine-4-carboxamide] as the compound, how does the AC1.4 read?
**A.** The AC1.4 was 0.26 µM.

**Q.** With `CC[C@H](C)[C@H]1C(=O)Nc2ccccc2CN1C(=O)c1cn[nH]c1` [Compound 45, (S)-3-((S)-sec-butyl)-4-(1H-pyrazole-4-carbonyl)-1,3,4,5-tetrahydro-2H-benzo[e][1,4]diazepin-2-one] as the compound, how does the AC1.4 read?
**A.** Its AC1.4 is 0.08 µM.

**Q.** With `CC[C@H](C)[C@H]1C(=O)Nc2ccccc2CN1C(=O)c1cnn(C)c1` [Compound 46, (S)-3-((S)-sec-butyl)-4-(1-methyl-1H-pyrazole-4-carbonyl)-1,3,4,5-tetrahydro-2H-benzo[e][1,4]diazepin-2-one] as the compound, how does the AC1.4 read?
**A.** The AC1.4 was 0.13 µM.

**Q.** How did the AC1.4 turn out when `CC[C@H](C)[C@H]1C(=O)Nc2ccccc2CN1C(=O)c1cccc(=O)[nH]1` [Compound 47, (S)-3-((S)-sec-butyl)-4-(6-oxo-1,6-dihydropyridine-2-carbonyl)-1,3,4,5-tetrahydro-2H-benzo[e][1,4]diazepin-2-one] was run?
**A.** The AC1.4 was 0.14 µM.

**Q.** With `CC[C@H](C)[C@H]1C(=O)Nc2ccccc2CN1C(=O)c1cc[nH]c(=O)c1` [Compound 48, (S)-3-((S)-sec-butyl)-4-(2-oxo-1,2-dihydropyridine-4-carbonyl)-1,3,4,5-tetrahydro-2H-benzo[d][1,4]diazepin-2-one] as the compound, how does the AC1.4 read?
**A.** The AC1.4 was 0.06 µM.

**Q.** With `CC[C@H](C)[C@H]1C(=O)Nc2ccccc2CN1C(=O)c1cc(O)n[nH]1` [Compound 50, (S)-3-((S)-sec-butyl)-4-(3-hydroxy-1H-pyrazole-5-carbonyl)-1,3,4,5-tetrahydro-2H-benzo[e][1,4]diazepin-2-one] as the compound, how does the AC1.4 read?
**A.** Its AC1.4 is 0.17 µM.

**Q.** With `CC[C@H](C)[C@H]1C(=O)Nc2ccccc2CN1C(=O)C(C)(C)O` [Compound 51, (S)-3-((S)-sec-Butyl)-4-(2-hydroxy-2-methylpropanoyl)-1,3,4,5-tetrahydro-2H-benzo[e][1,4]diazepin-2-one] as the compound, how does the AC1.4 read?
**A.** The AC1.4 was 1.23 µM.

**Q.** With `CC[C@H](C)[C@H]1C(=O)Nc2ccccc2CN1c1nc(N)cc(=O)[nH]1` [Compound 52, (S)-4-(4-Amino-6-oxo-1,6-dihydropyrimidin-2-yl)-3-((S)-sec-butyl)-1,3,4,5-tetrahydro-2H-benzo[e][1,4]diazepin-2-one] as the compound, how does the AC1.4 read?
**A.** The AC1.4 was 0.03 µM.

**Q.** `CC[C@H](C)[C@H]1C(=O)Nc2ccccc2CN1c1nc(C)cc(=O)[nH]1` [Compound 53, (S)-3-((S)-sec-Butyl)-4-(4-methyl-6-oxo-1,6-dihydropyrimidin-2-yl)-1,3,4,5-tetrahydro-2H-benzo[e][1,4]diazepin-2-one] was tested. Which AC1.4 did it give?
**A.** Its AC1.4 is 0.10 µM.

**Q.** `CC[C@H](C)[C@H]1C(=O)Nc2ccccc2CN1c1cc(=O)[nH]cn1` [Compound 54, (S)-3-((S)-sec-butyl)-4-(6-oxo-1,6-dihydropyrimidin-4-yl)-1,3,4,5-tetrahydro-2H-benzo[e][1,4]diazepin-2-one] was tested. Which AC1.4 did it give?
**A.** Its AC1.4 is 0.09 µM.

**Q.** Which AC1.4 does the source give for `CC[C@H](C)[C@H]1C(=O)Nc2ccccc2CN1c1noc(C)n1` [Compound 55, (S)-3-((S)-sec-Butyl)-4-(5-methyl-1,2,4-oxadiazol-3-yl)-1,3,4,5-tetrahydro-2H-benzo[e][1,4]diazepin-2-one] here?
**A.** Its AC1.4 is 0.21 µM.

**Q.** `CC[C@H](C)[C@H]1C(=O)Nc2ccccc2CN1c1ncon1` [Compound 56, (S)-3-((S)-sec-Butyl)-4-(1,2,4-oxadiazol-3-yl)-1,3,4,5-tetrahydro-2H-benzo[e][1,4]diazepin-2-one] was tested. Which AC1.4 did it give?
**A.** Its AC1.4 is 0.08 µM.

**Q.** For `CC[C@H](C)[C@H]1C(=O)Nc2ccccc2CN1c1c(N)c(=O)c1=O` [Compound 57, 3-Amino-4-((S)-3-((S)-sec-butyl)-2-oxo-1,2,3,5-tetrahydro-4H-benzo[e][1,4]diazepin-4-yl)cyclobut-3-ene-1,2-dione], which AC1.4 is on record?
**A.** Its AC1.4 is 0.03 µM.

**Q.** For `CC[C@H](C)[C@H]1C(=O)Nc2ccccc2CN1C(=O)N(C)C` [Compound 58, (S)-3-((S)-sec-butyl)-N,N-dimethyl-2-oxo-1,2,3,5-tetrahydro-4H-benzo[e][1,4]diazepine-4-carboxamide], which AC1.4 is on record?
**A.** The AC1.4 was 0.13 µM.

**Q.** Which AC1.4 does the source give for `CC[C@H](C)[C@H]1C(=O)Nc2ccccc2CN1C(=O)N1CC(OC)C1` [Compound 59, (S)-3-((S)-sec-butyl)-4-(3-methoxyazetidine-1-carbonyl)-1,3,4,5-tetrahydro-2H-benzo[e][1,4]diazepin-2-one] here?
**A.** Its AC1.4 is 0.17 µM.

**Q.** With `CC[C@H](C)[C@H]1C(=O)Nc2ccccc2CN1c1ncc(N)c(OC)n1` [Compound 60, (S)-4-(5-Amino-4-methoxypyrimidin-2-yl)-3-((S)-sec-butyl)-1,3,4,5-tetrahydro-2H-benzo[e][1,4]diazepin-2-one] as the compound, how does the AC1.4 read?
**A.** The AC1.4 was 0.07 µM.

**Q.** For `CC[C@H](C)[C@H]1C(=O)Nc2ccccc2CN1c1ncncn1` [Compound 61, (S)-3-((S)-sec-Butyl)-4-(1,3,5-triazin-2-yl)-1,3,4,5-tetrahydro-2H-benzo[e][1,4]diazepin-2-one], which AC1.4 is on record?
**A.** The AC1.4 was 0.07 µM.

**Q.** With `CC[C@H](C)[C@H]1C(=O)Nc2ccccc2CN1CCO` [Compound 62, (S)-3-((S)-sec-Butyl)-4-(2-hydroxyethyl)-1,3,4,5-tetrahydro-2H-benzo[e][1,4]diazepin-2-one] as the compound, how does the AC1.4 read?
**A.** The AC1.4 was 2.25 µM.

**Q.** `CC[C@H](C)[C@H]1C(=O)Nc2ccccc2C(C)(C)N1C(N)=O` [Compound 63, (S)-3-((S)-sec-Butyl)-5,5-dimethyl-2-oxo-1,2,3,5-tetrahydro-4H-benzo[e][1,4]diazepine-4-carboxamide] was tested. Which AC1.4 did it give?
**A.** Its AC1.4 is 0.10 µM.

**Q.** Which AC1.4 does the source give for `CC[C@H](C)[C@H]1C(=O)Nc2cccc(Cl)c2CN1C(=O)N1CC(O)C1` [Compound 66, (S)-3-((S)-sec-butyl)-6-chloro-4-(3-hydroxyazetidine-1-carbonyl)-1,3,4,5-tetrahydro-2H-benzo[e][1,4]diazepin-2-one] here?
**A.** Its AC1.4 is 3.00 µM.

**Q.** Which AC1.4 does the source give for `CC[C@H](C)[C@H]1C(=O)Nc2cccc(Br)c2CN1C(N)=O` [Compound 67, (S)-6-bromo-3-((S)-sec-butyl)-2-oxo-1,2,3,5-tetrahydro-4H-benzo[e][1,4]diazepine-4-carboxamide] here?
**A.** The AC1.4 was 2.15 µM.

**Q.** For `CC[C@H](C)[C@H]1C(=O)Nc2cccc(C3CC3)c2CN1C(N)=O` [Compound 68, (S)-3-((S)-sec-butyl)-6-cyclopropyl-2-oxo-1,2,3,5-tetrahydro-4H-benzo[e][1,4]diazepine-4-carboxamide], which AC1.4 is on record?
**A.** The AC1.4 was 4.30 µM.

**Q.** With `CC[C@H](C)[C@H]1C(=O)Nc2ccc(F)cc2CN1C(C)=O` [Compound 69, (S)-4-acetyl-3-((S)-sec-butyl)-7-fluoro-1,3,4,5-tetrahydro-2H-benzo[e][1,4]diazepin-2-one] as the compound, how does the AC1.4 read?
**A.** The AC1.4 was 0.72 µM.

**Q.** Which AC1.4 does the source give for `CC[C@H](C)[C@H]1C(=O)Nc2ccc(F)cc2CN1C(=O)c1ccn[nH]1` [Compound 70, (S)-3-((S)-sec-butyl)-7-fluoro-4-(1H-pyrazole-5-carbonyl)-1,3,4,5-tetrahydro-2H-benzo[e][1,4]diazepin-2-one] here?
**A.** The AC1.4 was 0.23 µM.

**Q.** With `CC[C@H](C)[C@H]1C(=O)Nc2ccc(F)cc2CN1/C(N)=N\C#N` [Compound 71, (S,Z)-3-((S)-sec-butyl)-N′-cyano-7-fluoro-2-oxo-1,2,3,5-tetrahydro-4H-benzo[e][1,4]diazepine-4-carboximidamide] as the compound, how does the AC1.4 read?
**A.** Its AC1.4 is 0.15 µM.

**Q.** With `CC[C@H](C)[C@H]1C(=O)Nc2ccc(F)cc2CN1C(=O)N1CC(O)C1` [Compound 72, (S)-3-((S)-sec-butyl)-7-fluoro-4-(3-hydroxyazetidine-1-carbonyl)-1,3,4,5-tetrahydro-2H-benzo[e][1,4]diazepin-2-one] as the compound, how does the AC1.4 read?
**A.** The AC1.4 was 0.41 µM.

**Q.** For `CC[C@H](C)[C@H]1C(=O)Nc2ccc(Cl)cc2CN1C(N)=O` [Compound 73, (S)-3-((S)-sec-butyl)-7-chloro-2-oxo-1,2,3,5-tetrahydro-4H-benzo[e][1,4]diazepine-4-carboxamide], which AC1.4 is on record?
**A.** Its AC1.4 is 0.93 µM.

**Q.** How did the AC1.4 turn out when `CC[C@H](C)[C@H]1C(=O)Nc2ccc(C3CC3)cc2CN1C(N)=O` [Compound 74, (S)-3-((S)-sec-butyl)-7-cyclopropyl-2-oxo-1,2,3,5-tetrahydro-4H-benzo[e][1,4]diazepine-4-carboxamide] was run?
**A.** The AC1.4 was 2.39 µM.

**Q.** `CC[C@H](C)[C@H]1C(=O)Nc2cc(F)ccc2CN1C(N)=O` [Compound 75, (S)-3-((S)-sec-butyl)-8-fluoro-2-oxo-1,2,3,5-tetrahydro-4H-benzo[e][1,4]diazepine-4-carboxamide] was tested. Which AC1.4 did it give?
**A.** The AC1.4 was 0.13 µM.

**Q.** For `CC[C@H](C)[C@H]1C(=O)Nc2cc(F)ccc2CN1C(=O)N1CC(O)C1` [Compound 76, (S)-3-((S)-sec-butyl)-8-fluoro-4-(3-hydroxyazetidine-1-carbonyl)-1,3,4,5-tetrahydro-2H-benzo[e][1,4]diazepin-2-one], which AC1.4 is on record?
**A.** Its AC1.4 is 0.14 µM.
